Source: ChEMBL document CHEMBL3046825, “Molecular Mechanism for Selective Toxicity of Nicotinoids and Neonicotinoids” (J Pestic Sci, 1995)
The source made the active and inactive calls. No cut-off for these calls is given here.

Tests used:
[1] = Displacement of [3H]nicotine from nAChR in Sprague-Dawley Rattus norvegicus (rat) whole brain homogenates; format: tissue-based
[2] = Displacement of [3H]alpha-BGT from nAChR in Apis mellifera (honeybee) head
[3] = biological target: Acetylcholine receptor subunit alpha (Torpedo californica) (UniProt P02710); experiment: Increase in [3H]PCP binding to nAChR in Torpedo nobiliana electric organs; details: Electric organ
Chain of Acetylcholine receptor subunit alpha (Torpedo californica) (P02710 whole entry): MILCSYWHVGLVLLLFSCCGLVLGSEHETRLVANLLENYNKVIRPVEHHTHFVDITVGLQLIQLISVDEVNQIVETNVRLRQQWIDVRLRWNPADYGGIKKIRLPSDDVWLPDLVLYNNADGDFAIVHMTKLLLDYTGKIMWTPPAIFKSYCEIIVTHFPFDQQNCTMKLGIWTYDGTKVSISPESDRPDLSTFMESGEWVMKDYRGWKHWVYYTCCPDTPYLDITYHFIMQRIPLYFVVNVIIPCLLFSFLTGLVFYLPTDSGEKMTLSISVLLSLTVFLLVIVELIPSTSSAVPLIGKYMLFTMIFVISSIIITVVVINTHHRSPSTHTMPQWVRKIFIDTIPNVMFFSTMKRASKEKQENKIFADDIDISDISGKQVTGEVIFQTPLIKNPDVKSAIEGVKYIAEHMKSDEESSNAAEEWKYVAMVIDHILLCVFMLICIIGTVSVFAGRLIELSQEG

[4] = biological target: Acetylcholine receptor subunit alpha (Torpedo californica) (UniProt P02710); experiment: Increase in [3H]PCP binding to nAChR in Torpedo nobiliana electric organs in presence of carbachol; details: Electric organ
[5] = biological target: Acetylcholine receptor subunit alpha (Torpedo californica) (UniProt P02710); experiment: Displacement of [3H]alpha-BGT from nAChR in Torpedo nobiliana electric organs at 300 uM; details: Electric organ
[6] = biological target: Acetylcholine receptor subunit alpha (Torpedo californica) (UniProt P02710); experiment: Inhibition of [3H]PCP binding to nAChR in Torpedo nobiliana electric organs in presence of carbachol; details: Electric organ
[7] = biological target: Acetylcholine receptor subunit alpha (Torpedo californica) (UniProt P02710); experiment: Displacement of [3H]alpha-BGT from nAChR in Torpedo nobiliana electric organs at 1000 uM; details: Electric organ
Apis mellifera = experiment: Displacement of [3H]alpha-BGT from nAChR in Apis mellifera (honeybee) head at 1000 uM
Rattus norvegicus = species on record: Rattus norvegicus; experiment: Displacement of [3H]nicotine from nAChR in Sprague-Dawley Rattus norvegicus (rat) whole brain homogenates at 1000 uM; format: tissue-based

Row | Structure (SMILES) | IC50 [1] [µM] | IC50 [2] [µM] | Activity [3] | Activity [4] | other results
1 | O=[N+]([O-])C=C1NCCCS1 | 109 | 1360 | – | – | –
2 | CN(C)Cc1ccccn1 | – | – | Active | inactive | –
3 | CN(C)Cc1cccnc1 | – | – | Active | inactive | –
4 | CN(C)Cc1ccncc1 | – | – | Active | inactive | –
5 | C/C(=N\C#N)N(C)Cc1ccc(Cl)nc1 [ACETAMIPRID] | – | 8.83 | – | – | inhibition [5]: 12.6%
6 | c1cncc([C@@H]2CCCCN2)c1 [ANABASINE] | 0.285 | 1.98 | – | – | –
7 | C[N+](C)(C)CCOC(N)=O [CARBACHOL] | 0.647 | 90.2 | – | – | –
8 | O=[N+]([O-])/N=C1\NCCN1Cc1ccc(Cl)nc1 [IMIDACLOPRID] | 0.984 | 1.95 | 300% | inactive | inhibition [6]: inactive
9 | CN1CCC[C@H]1c1cccnc1 [NICOTINE] | 0.0096 | 1.25 | Active | inactive | –
10 | Cn1cccc1-c1cccnc1 [NICOTYRINE] | > 1000 | > 1000 | – | – | inhibition [7]: 2.55%; inhibition (Apis mellifera): 1.5%; inhibition (Rattus norvegicus): 15.6%
11 | CCN(Cc1ccc(Cl)nc1)/C(=C/[N+](=O)[O-])NC [NITENPYRAM] | – | 61.3 | – | – | –
12 | C[N+](C)(C)C [TRETRAMETHYLAMMONIUM IODIDE] | – | 542 | Active | inactive | –
